According to ChEMBL document CHEMBL1697681, “Predicting phospholipidosis using machine learning” (Mol Pharm, 2010):

Each compound was assayed on Phospholipidosis (assay: Literature-mined public compounds from Lowe et al phospholipidosis modelling dataset).
For `Cc1ccc(C(=O)Nc2ccc(S(=O)(=O)O)c3cc(S(=O)(=O)O)cc(S(=O)(=O)O)c23)cc1NC(=O)c1cccc(NC(=O)Nc2cccc(C(=O)Nc3cc(C(=O)Nc4ccc(S(=O)(=O)O)c5cc(S(=O)(=O)O)cc(S(=O)(=O)O)c45)ccc3C)c2)c1` [SURAMIN], the Phospholipidosis was “Positive”.
With `N=C(N)NCCCCCCCCCCNC(=N)N` [SYNTHALIN] the Phospholipidosis was “Negative”.
With `Nc1c2c(nc3ccccc13)CCCC2` [TACRINE] the Phospholipidosis was “Negative”.
`CC/C(=C(\c1ccccc1)c1ccc(OCCN(C)C)cc1)c1ccccc1` [TAMOXIFEN] was tested, and the Phospholipidosis was “Positive”.
In the case of `Cn1nnc2c(C(N)=O)ncn2c1=O` [TEMOZOLOMIDE], the Phospholipidosis is reported as “Negative”.
`CN(C)[C@@H]1C(O)=C(C(N)=O)C(=O)[C@@]2(O)C(O)=C3C(=O)c4c(O)cccc4[C@@](C)(O)[C@H]3C[C@@H]12` [TETRACYCLINE] was tested, and the Phospholipidosis was “Negative”.
`CC(=N)S` [THIOACETAMIDE] was tested, and the Phospholipidosis was “Negative”.
In the case of `CSc1ccc2c(c1)N(CCC1CCCCN1C)c1ccccc1S2` (centres undefined) [THIORIDAZINE], the Phospholipidosis is reported as “Positive”.
For `CCN(CC)CCOc1ccc2c(c1)C(=O)c1cc(OCCN(CC)CC)ccc1-2` [TILORONE], the Phospholipidosis was “Positive”.
For `NC[C@H]1O[C@H](O[C@H]2[C@H](O)[C@@H](O[C@H]3O[C@H](CO)[C@@H](O)[C@H](N)[C@H]3O)[C@H](N)C[C@@H]2N)[C@H](N)C[C@@H]1O` [TOBRAMYCIN], the Phospholipidosis was “Positive”.
In the case of `CC(CN(C)C)CN1c2ccccc2CCc2ccccc21` (centres undefined) [TRIMIPRAMINE], the Phospholipidosis is reported as “Positive”.
With `CCN(CC)CCOc1ccc(C(O)(Cc2ccc(Cl)cc2)c2ccc(C)cc2)cc1` (centres undefined) [TRIPARANOL] the Phospholipidosis was “Positive”.
In the case of `CN(C)CCN(Cc1ccccc1)c1ccccn1` [TRIPELENNAMINE], the Phospholipidosis is reported as “Positive”.
`CCCC[C@@H]1CC(=O)[C@]2(O)O[C@@H]3[C@@H](NC)[C@@H](O)[C@@H](NC)[C@H](O)[C@H]3O[C@@H]2O1` [TROSPECTOMYCIN] was tested, and the Phospholipidosis was “Positive”.
For `CCCC(CCC)C(=O)O` [VALPROIC ACID], the Phospholipidosis was “Negative”.
In the case of `CC[C@]1(O)C[C@@H]2CN(CCc3c([nH]c4ccccc34)[C@@](C(=O)OC)(c3cc4c(cc3OC)N(C)[C@H]3[C@@](O)(C(=O)OC)[C@H](OC(C)=O)[C@]5(CC)C=CCN6CC[C@]43[C@@H]65)C2)C1` [VINBLASTINE], the Phospholipidosis is reported as “Negative”.
For `Cc1cn([C@H]2C[C@H](N=[N+]=[N-])[C@@H](CO)O2)c(=O)[nH]c1=O` [ZIDOVUDINE], the Phospholipidosis was “Negative”.
In the case of `CC(c1cc2ccccc2s1)N(O)C(N)=O` (centres undefined) [ZILEUTON], the Phospholipidosis is reported as “Negative”.
For `CN(C)C/C=C(/c1ccc(Br)cc1)c1cccnc1` [ZIMELDINE], the Phospholipidosis was “Positive”.
